4 cell lines from the supplement of paper PMC10307832 can be followed below.

Common to all, as to assay: relative viability (nuclei count vs DMSO), 5 days (fraction); higher = more cells survive
Compound in the assay “XMD13-2 + OSI-027”: C1CC1C(=O)NC2=NNC3=C2C=CC(=C3)C4=CC(=CC=C4)C(=O)NC5CC5 [XMD13-2] + COc1cccc2cc(-c3nc([C@H]4CC[C@H](C(=O)O)CC4)n4ncnc(N)c34)[nH]c12 [OSI-027] (partner 0.5 µM)
A digest of the protocol: (§1)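 Relative viability is defined as nuclei in treated wells over nuclei in vehicle wells. Duplicate plates were run and medians reported. Lung cancer cell lines in 1536-well plates were dosed by pin tool one day after seeding, with one drug or with a fixed anchor-drug dose plus five library-drug doses (not always all listed) in √10 steps, and nuclei were counted after 5 days.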

Compound in the assay “XMD13-2 + Pictilisib”: C1CC1C(=O)NC2=NNC3=C2C=CC(=C3)C4=CC(=CC=C4)C(=O)NC5CC5 [XMD13-2] + CS(=O)(=O)N1CCN(Cc2cc3nc(-c4cccc5[nH]ncc45)nc(N4CCOCC4)c3s2)CC1 [Pictilisib] (partner 1 µM)
Put shortly: as §1

Compound in the assay “ALW-II-49-7 + Alpelisib”: Cc1ccc(C(=O)Nc2cccc(C(F)(F)F)c2)cc1Nc1cncc(C(N)=O)c1 [ALW-II-49-7] + Cc1nc(NC(=O)N2CCC[C@H]2C(N)=O)sc1-c1ccnc(C(C)(C)C(F)(F)F)c1 [Alpelisib] (partner 2 µM)
A digest of the protocol:
as §1

Compound in the assay “ALW-II-49-7 + Vorinostat”: Cc1ccc(C(=O)Nc2cccc(C(F)(F)F)c2)cc1Nc1cncc(C(N)=O)c1 [ALW-II-49-7] + O=C(CCCCCCC(=O)Nc1ccccc1)NO [Vorinostat] (partner 1 µM)
A digest of the protocol: as §1

Regarding 201T, the relative viability is 0.95 with XMD13-2 + OSI-027 (first compound 0.05 µM); 0.731 in the assay with XMD13-2 + OSI-027 (first compound 0.1581 µM); 0.854 with XMD13-2 + OSI-027 (first compound 0.5 µM); 0.701 with XMD13-2 + OSI-027 (first compound 1.581 µM); 0.723 in the assay with XMD13-2 + OSI-027 (first compound 5 µM); 0.747 with XMD13-2 + Pictilisib (first compound 0.05 µM). For the same cell line, the relative viability with XMD13-2 + Pictilisib (first compound 0.1581 µM) came out at 0.72; in the assay with XMD13-2 + Pictilisib (first compound 0.5 µM), 0.639; with XMD13-2 + Pictilisib (first compound 1.581 µM), 0.673; with XMD13-2 + Pictilisib (first compound 5 µM) it was 0.719; in the assay with ALW-II-49-7 + Alpelisib (first compound 0.08 µM), 1; in the assay with ALW-II-49-7 + Alpelisib (first compound 0.253 µM), 1.02. For the same cell line, the relative viability worked out at 1.02 in the assay with ALW-II-49-7 + Alpelisib (first compound 0.8 µM); 0.992 in the assay with ALW-II-49-7 + Alpelisib (first compound 2.53 µM); 1.02 with ALW-II-49-7 + Alpelisib (first compound 8 µM); 0.922 in the assay with ALW-II-49-7 + Vorinostat (first compound 0.08 µM); 1.02 with ALW-II-49-7 + Vorinostat (first compound 0.253 µM); 0.995 with ALW-II-49-7 + Vorinostat (first compound 0.8 µM). For the same cell line, the relative viability in the assay with ALW-II-49-7 + Vorinostat (first compound 2.53 µM) is 1.02; with ALW-II-49-7 + Vorinostat (first compound 8 µM), 0.801.

For A549, the relative viability with XMD13-2 + Pictilisib (first compound 0.05 µM) amounted to 0.677; with XMD13-2 + Pictilisib (first compound 0.1581 µM), 0.508; in the assay with XMD13-2 + Pictilisib (first compound 0.5 µM), 0.565; with XMD13-2 + Pictilisib (first compound 1.581 µM) it was 0.477; in the assay with XMD13-2 + Pictilisib (first compound 5 µM), 0.504; with ALW-II-49-7 + Alpelisib (first compound 0.08 µM), 0.82. Besides, the relative viability with ALW-II-49-7 + Alpelisib (first compound 0.253 µM) was 0.756; in the assay with ALW-II-49-7 + Alpelisib (first compound 0.8 µM) it was 0.728; in the assay with ALW-II-49-7 + Alpelisib (first compound 2.53 µM), 0.802; with ALW-II-49-7 + Alpelisib (first compound 8 µM), 0.712.

A-427: the relative viability worked out at 0.462 in the assay with XMD13-2 + OSI-027 (first compound 0.05 µM); 0.354 with XMD13-2 + OSI-027 (first compound 0.1581 µM); 0.489 with XMD13-2 + OSI-027 (first compound 0.5 µM); 0.444 in the assay with XMD13-2 + OSI-027 (first compound 1.581 µM); 0.355 with XMD13-2 + OSI-027 (first compound 5 µM); 0.871 with XMD13-2 + Pictilisib (first compound 0.05 µM). For the same cell line, the relative viability with XMD13-2 + Pictilisib (first compound 0.1581 µM) is 0.732; in the assay with XMD13-2 + Pictilisib (first compound 0.5 µM) it was 0.797; with XMD13-2 + Pictilisib (first compound 1.581 µM), 0.537; with XMD13-2 + Pictilisib (first compound 5 µM) it was 0.558; with ALW-II-49-7 + Alpelisib (first compound 0.08 µM), 1.25; with ALW-II-49-7 + Alpelisib (first compound 0.253 µM), 1.06. Besides, the relative viability was determined as 1.13 with ALW-II-49-7 + Alpelisib (first compound 0.8 µM); 1.21 with ALW-II-49-7 + Alpelisib (first compound 2.53 µM); 1.12 with ALW-II-49-7 + Alpelisib (first compound 8 µM); 0.936 in the assay with ALW-II-49-7 + Vorinostat (first compound 0.08 µM); 0.902 in the assay with ALW-II-49-7 + Vorinostat (first compound 0.253 µM); 0.854 in the assay with ALW-II-49-7 + Vorinostat (first compound 0.8 µM). The relative viability is 0.838 in the assay with ALW-II-49-7 + Vorinostat (first compound 2.53 µM) and 0.826 with ALW-II-49-7 + Vorinostat (first compound 8 µM).

As for ABC-1, the relative viability is 0.693 with XMD13-2 + OSI-027 (first compound 0.05 µM); 0.486 with XMD13-2 + OSI-027 (first compound 0.1581 µM); 0.572 with XMD13-2 + OSI-027 (first compound 0.5 µM); 0.427 with XMD13-2 + OSI-027 (first compound 1.581 µM); 0.368 with XMD13-2 + OSI-027 (first compound 5 µM); 0.946 with XMD13-2 + Pictilisib (first compound 0.05 µM). In addition, the relative viability in the assay with XMD13-2 + Pictilisib (first compound 0.1581 µM) is 0.744; in the assay with XMD13-2 + Pictilisib (first compound 0.5 µM) it was 0.706; in the assay with XMD13-2 + Pictilisib (first compound 1.581 µM), 0.791; in the assay with XMD13-2 + Pictilisib (first compound 5 µM), 0.3; with ALW-II-49-7 + Alpelisib (first compound 0.08 µM), 0.945; with ALW-II-49-7 + Alpelisib (first compound 0.253 µM), 0.937. Also, the relative viability with ALW-II-49-7 + Alpelisib (first compound 0.8 µM) came to 1.06; in the assay with ALW-II-49-7 + Alpelisib (first compound 2.53 µM), 0.967; in the assay with ALW-II-49-7 + Alpelisib (first compound 8 µM) it was 0.973; in the assay with ALW-II-49-7 + Vorinostat (first compound 0.08 µM), 1.05; with ALW-II-49-7 + Vorinostat (first compound 0.253 µM), 1.2; with ALW-II-49-7 + Vorinostat (first compound 0.8 µM), 1.13. In addition, the relative viability in the assay with ALW-II-49-7 + Vorinostat (first compound 2.53 µM) amounted to 0.78; with ALW-II-49-7 + Vorinostat (first compound 8 µM) it was 1.27.
